Test results reported in patent publication US20260077047A1, “CANCER THERAPY” (TURBINE SIMULATED CELL TECHNOLOGIES LTD, priority 2022, published 2026).

Tests used:
Test in all cases: ATM inhibition viability assay (CTG) on cells ± NEK-1 knockout
Format in all cases: cell-based
Conditions in all cases: AZD1390 10 μM-0.00152 μM, 7 days, normalized to DMSO
[1] = tested on: Daoy cells ± NEK-1 knockout
Method: (§1) • i. Adhered cells were washed with 1 mL DPBS and trypsinised by addition of trypsin to 0.05% w/v and incubation under standard conditions. • ii. 1 mL cell culture medium was added to the detached cells to inhibit trypsin and suspended cells were centrifuged at 200×g for 5 minutes at room temperature. • iii. The supernatant was discarded and the cells were resuspended in 1 ml cell culture medium and exact cell number was determined using hemocytometer after Trypan blue staining. • iv. Cells were seeded according to table 5 in 90 μl/well in opaque 96-well plates in triplicate. Cells were grown overnight under standard conditions in complete culture medium (see 1c) […].
(§2) • v. Cells were treated with AZD1390 over the concentration range 10 μM-0.00152 μM, prepared by 10-point 3× serial dilutions from a 10 mM DMSO stock. Cells were incubated under standard conditions with the compounds for 7 days with refresh of the medium and drug twice a week. • vi. After the 7 day incubation, CGT assays were performed to assess cell viability.
(§3) Data showing cell viability for NEK1 knockout cell lines and NT cell lines are shown in FIGS. 4A-D. Data are normalized relative to cells treated with DMSO only.

[2] = tested on: HSC-2 cells ± NEK-1 knockout
Method: as §1, §2, §3

[3] = tested on: HCC1806 cells ± NEK-1 knockout
Method: as §1, §2, §3

Measured: effect on cell viability when combined with a NEK-1 knockout

CC(C)n1c(=O)n(C)c2cnc3cc(F)c(-c4ccc(OCCCN5CCCCC5)nc4)cc3c21 [AZD1390]
synergistic effect: all assays above
